According to ChEMBL document CHEMBL5465560, “Selectivity Literature for EUbOPEN Chemogenomic Library” (2024):

Experiments:
[1] = biological target: T1, Serine/threonine-protein kinase PLK4 (Homo sapiens) (UniProt O00444); experiment: Selectivity interaction (KinomeScan (DiscoverX)) EUB0000595a PLK4; settings: at 10 µM
T1 sequence (whole entry): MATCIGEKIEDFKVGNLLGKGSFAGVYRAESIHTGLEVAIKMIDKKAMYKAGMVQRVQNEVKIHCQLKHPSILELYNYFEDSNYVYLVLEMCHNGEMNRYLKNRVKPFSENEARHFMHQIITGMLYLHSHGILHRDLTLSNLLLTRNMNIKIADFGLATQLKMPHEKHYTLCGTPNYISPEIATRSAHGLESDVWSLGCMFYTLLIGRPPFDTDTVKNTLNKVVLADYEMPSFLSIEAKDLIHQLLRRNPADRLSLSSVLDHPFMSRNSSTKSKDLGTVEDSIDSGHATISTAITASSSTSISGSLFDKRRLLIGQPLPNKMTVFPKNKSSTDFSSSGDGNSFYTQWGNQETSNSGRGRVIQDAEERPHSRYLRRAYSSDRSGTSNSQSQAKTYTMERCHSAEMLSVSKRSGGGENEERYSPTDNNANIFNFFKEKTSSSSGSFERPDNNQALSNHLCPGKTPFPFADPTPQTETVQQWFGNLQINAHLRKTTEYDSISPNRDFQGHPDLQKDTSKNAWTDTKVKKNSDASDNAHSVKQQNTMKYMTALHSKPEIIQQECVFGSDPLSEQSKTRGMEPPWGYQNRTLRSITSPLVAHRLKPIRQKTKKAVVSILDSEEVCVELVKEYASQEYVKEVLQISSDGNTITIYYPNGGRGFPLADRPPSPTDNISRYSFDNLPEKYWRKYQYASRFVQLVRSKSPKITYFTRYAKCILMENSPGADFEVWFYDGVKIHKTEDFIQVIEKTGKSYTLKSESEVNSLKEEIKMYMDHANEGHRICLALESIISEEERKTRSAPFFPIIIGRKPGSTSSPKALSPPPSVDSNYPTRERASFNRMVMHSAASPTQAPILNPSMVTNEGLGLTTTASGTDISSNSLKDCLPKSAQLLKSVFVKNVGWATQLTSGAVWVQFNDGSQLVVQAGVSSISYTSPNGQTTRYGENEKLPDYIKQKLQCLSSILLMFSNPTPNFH

[2] = biological target: Cyclin-dependent kinase 15 (Homo sapiens) (UniProt Q96Q40); experiment: Selectivity interaction (KinomeScan (DiscoverX)) EUB0000045b CDK15
Sequence of Cyclin-dependent kinase 15 (Homo sapiens) (Q96Q40 whole entry): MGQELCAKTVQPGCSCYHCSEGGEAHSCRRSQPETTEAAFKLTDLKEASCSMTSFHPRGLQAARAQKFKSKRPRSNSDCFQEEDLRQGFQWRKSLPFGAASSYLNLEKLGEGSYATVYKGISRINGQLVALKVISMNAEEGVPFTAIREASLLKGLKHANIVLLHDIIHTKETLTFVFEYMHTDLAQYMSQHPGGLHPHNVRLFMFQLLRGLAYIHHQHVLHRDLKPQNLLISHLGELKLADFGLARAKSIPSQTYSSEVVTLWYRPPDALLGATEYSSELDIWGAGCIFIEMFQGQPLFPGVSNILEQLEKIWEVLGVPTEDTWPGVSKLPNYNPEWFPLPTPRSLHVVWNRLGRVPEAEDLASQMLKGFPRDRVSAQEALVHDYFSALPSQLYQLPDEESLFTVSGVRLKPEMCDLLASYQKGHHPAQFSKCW

[3] = biological target: SRSF protein kinase 2 (Homo sapiens) (UniProt P78362); experiment: Selectivity interaction (Upstate Kinase Profiler service (Millipore)) EUB0000056c SRPK2; settings: at 1 µM
Sequence of SRSF protein kinase 2 (Homo sapiens) (P78362 whole entry, looked up): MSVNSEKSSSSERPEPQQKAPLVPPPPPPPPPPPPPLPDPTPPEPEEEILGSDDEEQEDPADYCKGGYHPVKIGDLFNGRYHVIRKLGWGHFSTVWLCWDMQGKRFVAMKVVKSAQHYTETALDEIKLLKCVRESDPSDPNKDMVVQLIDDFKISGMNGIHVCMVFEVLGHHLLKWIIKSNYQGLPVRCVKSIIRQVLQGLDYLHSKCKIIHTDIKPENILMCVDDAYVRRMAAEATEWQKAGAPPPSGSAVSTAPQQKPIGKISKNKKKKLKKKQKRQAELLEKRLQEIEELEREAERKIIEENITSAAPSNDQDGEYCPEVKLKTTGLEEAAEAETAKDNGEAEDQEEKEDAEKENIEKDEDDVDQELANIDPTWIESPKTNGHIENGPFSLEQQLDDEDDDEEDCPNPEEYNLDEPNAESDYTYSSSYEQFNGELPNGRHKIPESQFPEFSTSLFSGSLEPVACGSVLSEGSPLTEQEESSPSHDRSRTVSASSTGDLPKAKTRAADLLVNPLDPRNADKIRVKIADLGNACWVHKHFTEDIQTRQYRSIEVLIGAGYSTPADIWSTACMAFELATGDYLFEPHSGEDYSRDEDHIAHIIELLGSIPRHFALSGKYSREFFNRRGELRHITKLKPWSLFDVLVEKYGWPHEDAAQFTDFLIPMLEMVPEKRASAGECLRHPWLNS

D(2) dopamine receptor = D(2) dopamine receptor (Homo sapiens, UniProt P14416); experiment: Selectivity interaction (Dopamine D2 receptor assay, human recombinant ) EUB0000877a DRD2
Sequence of D(2) dopamine receptor (P14416 whole entry): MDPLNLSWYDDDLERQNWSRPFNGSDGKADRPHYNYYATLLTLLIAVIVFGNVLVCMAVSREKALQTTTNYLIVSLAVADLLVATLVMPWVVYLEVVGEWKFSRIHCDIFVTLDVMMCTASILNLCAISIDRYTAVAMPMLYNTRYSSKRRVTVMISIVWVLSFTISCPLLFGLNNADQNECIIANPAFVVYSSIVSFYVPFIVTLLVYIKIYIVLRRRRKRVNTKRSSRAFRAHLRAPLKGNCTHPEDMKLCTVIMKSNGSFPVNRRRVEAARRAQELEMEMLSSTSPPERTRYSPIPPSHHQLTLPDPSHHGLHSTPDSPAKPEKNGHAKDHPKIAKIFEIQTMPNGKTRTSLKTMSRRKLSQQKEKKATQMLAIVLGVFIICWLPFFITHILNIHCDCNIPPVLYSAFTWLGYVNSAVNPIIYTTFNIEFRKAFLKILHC

[4] = biological target: Ribosomal protein S6 kinase alpha-1 (Homo sapiens, UniProt Q15418); experiment: Selectivity interaction (KinomeScan (DiscoverX)) EUB0001619a RPS6KA1; settings: at 1 µM
Sequence of Ribosomal protein S6 kinase alpha-1 (Q15418 whole entry): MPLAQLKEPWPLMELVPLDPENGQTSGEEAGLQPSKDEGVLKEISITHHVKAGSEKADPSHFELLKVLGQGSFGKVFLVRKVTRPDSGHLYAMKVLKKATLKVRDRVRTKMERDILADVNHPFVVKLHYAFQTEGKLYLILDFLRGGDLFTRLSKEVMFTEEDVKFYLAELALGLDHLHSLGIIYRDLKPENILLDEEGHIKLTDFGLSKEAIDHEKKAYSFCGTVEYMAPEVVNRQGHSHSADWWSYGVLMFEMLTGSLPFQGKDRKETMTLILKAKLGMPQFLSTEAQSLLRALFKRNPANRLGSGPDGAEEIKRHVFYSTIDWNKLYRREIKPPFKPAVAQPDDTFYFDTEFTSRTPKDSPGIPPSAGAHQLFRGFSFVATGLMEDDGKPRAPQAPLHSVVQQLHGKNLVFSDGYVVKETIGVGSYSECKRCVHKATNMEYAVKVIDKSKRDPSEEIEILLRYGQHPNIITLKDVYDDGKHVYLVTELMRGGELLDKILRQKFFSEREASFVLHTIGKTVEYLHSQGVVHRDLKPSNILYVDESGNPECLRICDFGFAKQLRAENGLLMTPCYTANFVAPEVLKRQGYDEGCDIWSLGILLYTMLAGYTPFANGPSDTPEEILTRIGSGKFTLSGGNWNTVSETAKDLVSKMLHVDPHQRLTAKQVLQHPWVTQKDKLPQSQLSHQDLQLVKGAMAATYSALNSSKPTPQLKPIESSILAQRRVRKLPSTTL

[5] = biological target: T2, Inhibitor of nuclear factor kappa-B kinase subunit beta (Homo sapiens) (UniProt O14920); experiment: Selectivity interaction (KinomeScan (DiscoverX)) EUB0000607a IKBKB; settings: at 10 µM
T2 sequence (whole entry): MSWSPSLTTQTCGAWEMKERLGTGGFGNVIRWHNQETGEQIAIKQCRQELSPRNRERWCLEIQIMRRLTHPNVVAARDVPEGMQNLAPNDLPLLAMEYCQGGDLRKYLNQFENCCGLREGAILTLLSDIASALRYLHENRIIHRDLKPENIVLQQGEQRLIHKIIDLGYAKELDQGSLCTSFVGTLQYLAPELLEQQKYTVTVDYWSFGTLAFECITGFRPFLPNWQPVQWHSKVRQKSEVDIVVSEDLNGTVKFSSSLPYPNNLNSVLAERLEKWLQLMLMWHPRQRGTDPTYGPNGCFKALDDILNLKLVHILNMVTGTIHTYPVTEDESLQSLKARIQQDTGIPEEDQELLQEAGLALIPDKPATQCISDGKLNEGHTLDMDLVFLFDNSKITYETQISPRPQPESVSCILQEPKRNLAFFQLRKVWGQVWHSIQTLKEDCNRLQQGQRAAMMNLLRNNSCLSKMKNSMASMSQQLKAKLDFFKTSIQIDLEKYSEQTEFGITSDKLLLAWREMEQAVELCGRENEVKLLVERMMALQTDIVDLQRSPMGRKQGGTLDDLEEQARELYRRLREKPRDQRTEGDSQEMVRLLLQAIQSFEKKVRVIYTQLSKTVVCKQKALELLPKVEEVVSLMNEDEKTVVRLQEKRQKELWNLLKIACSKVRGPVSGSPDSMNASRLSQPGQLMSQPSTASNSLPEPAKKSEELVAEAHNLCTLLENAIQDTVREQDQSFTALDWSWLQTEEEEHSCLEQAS

[6] = biological target: T3, Mitogen-activated protein kinase kinase kinase 12 (Homo sapiens) (UniProt Q12852); experiment: Selectivity interaction (KinomeScan (DiscoverX)) EUB0000618a MAP3K12; settings: at 10 µM
T3 sequence (whole entry): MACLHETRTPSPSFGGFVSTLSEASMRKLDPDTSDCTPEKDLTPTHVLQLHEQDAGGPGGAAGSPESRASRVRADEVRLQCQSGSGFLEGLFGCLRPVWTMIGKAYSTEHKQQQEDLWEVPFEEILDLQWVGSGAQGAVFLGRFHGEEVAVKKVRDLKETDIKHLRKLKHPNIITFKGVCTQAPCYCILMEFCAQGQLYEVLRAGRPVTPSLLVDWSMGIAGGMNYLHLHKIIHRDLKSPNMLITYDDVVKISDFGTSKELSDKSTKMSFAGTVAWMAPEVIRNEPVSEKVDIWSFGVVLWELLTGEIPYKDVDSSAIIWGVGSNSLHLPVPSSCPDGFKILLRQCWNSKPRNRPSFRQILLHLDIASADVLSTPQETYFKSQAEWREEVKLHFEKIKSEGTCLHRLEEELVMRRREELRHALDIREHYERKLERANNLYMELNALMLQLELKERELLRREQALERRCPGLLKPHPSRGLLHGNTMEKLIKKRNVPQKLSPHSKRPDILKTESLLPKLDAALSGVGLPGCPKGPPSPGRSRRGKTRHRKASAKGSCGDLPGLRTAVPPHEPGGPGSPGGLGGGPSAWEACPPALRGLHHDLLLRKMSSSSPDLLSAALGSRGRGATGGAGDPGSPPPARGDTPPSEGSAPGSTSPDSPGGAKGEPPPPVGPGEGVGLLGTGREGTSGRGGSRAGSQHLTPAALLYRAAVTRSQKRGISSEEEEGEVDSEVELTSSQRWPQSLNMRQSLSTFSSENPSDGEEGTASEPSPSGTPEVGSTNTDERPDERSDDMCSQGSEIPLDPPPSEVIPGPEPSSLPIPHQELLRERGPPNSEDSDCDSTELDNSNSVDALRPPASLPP

[7] = biological target: Calcium/calmodulin-dependent protein kinase kinase 2 (Homo sapiens) (UniProt Q96RR4); experiment: Selectivity interaction (ActivX KiNativ screen (kinase selectivity in THP-1 cell lysates)) EUB0000639a CAMKK2; type: subcellular; settings: lysate, at 1 µM
Sequence of Calcium/calmodulin-dependent protein kinase kinase 2 (Homo sapiens) (Q96RR4 2-588 limits assumed): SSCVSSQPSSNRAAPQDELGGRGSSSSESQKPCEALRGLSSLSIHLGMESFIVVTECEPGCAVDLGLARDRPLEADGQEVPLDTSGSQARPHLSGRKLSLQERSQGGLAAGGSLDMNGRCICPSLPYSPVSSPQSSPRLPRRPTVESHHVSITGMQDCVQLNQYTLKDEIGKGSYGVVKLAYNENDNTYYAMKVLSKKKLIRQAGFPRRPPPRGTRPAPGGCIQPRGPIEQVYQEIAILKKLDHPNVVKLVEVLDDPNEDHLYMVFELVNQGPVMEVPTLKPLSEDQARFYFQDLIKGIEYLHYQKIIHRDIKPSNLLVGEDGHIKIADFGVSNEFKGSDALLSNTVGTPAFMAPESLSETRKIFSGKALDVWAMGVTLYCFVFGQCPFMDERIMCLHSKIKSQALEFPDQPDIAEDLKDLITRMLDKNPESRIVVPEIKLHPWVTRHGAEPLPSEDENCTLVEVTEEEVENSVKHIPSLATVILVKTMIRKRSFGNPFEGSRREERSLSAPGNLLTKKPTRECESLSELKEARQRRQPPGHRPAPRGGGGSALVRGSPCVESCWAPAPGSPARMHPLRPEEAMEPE

`COCC(=O)NC/C=C/c1ccc2ncnc(Nc3ccc(Oc4ccc(C)nc4)c(C)c3)c2c1` [CP-724714] showed a % of control [1] of 74%.

In the case of `C=CC(=O)Nc1cc(-n2c(=O)ccc3cnc4ccc(-c5ccc(NS(C)(=O)=O)cc5)cc4c32)ccc1C`, the % of control ([2]; at 1 µM) is reported as 100% and the % of control ([2]; at 10 µM) is reported as 72%.

`Cc1ccc(-c2ccc3c(ccc4sc5c(c43)NC[C@@H](C)NC5=O)n2)cn1` gave a % of inhibition [3] of 33%.

`CCC(=O)N1CC[C@H](Nc2ncnc3c2CN(c2cnc(OC)c(C(F)(F)F)c2)CC3)C1` [LENIOLISIB] was tested, and the IC50 (D(2) dopamine receptor) was > 30 µM.

With `N#Cc1cccc(-c2c[nH]c3ncnc(N4CCOCC4)c23)c1` the % of control [4] was 100%.

Work on `CNC(=O)Nc1ccc(-c2nc(N3CC4CCC(C3)O4)c3cnn(C4CCC5(CC4)OCCO5)c3n2)cc1` yielded a % of control [5] of 79%.

`O[C@H]1CC[C@H](Nc2ncc3nc(Nc4c(F)cc(F)cc4F)n([C@H]4CCOC4)c3n2)CC1` was tested, and the % of control [6] was 100%.

`CC[C@@H]1[C@H](F)C(=O)N[C@@H]1COc1nccc2cc(C(N)=O)c(OC)cc12` [ZIMLOVISERTIB] was tested, and the % of inhibition [7] was 12.1%.
